Assay results from patent US20250319046A1, “PHENYLALANINE-BASED LAT1 INHIBITORS AND USES THEREOF” (MAXYMUNE THERAPEUTICS, INC., priority 2024, published 2025).
Where two headings read alike, the source gives them in different places.

Columns and labels:
LAT1 = LAT1 (Homo sapiens (Human), UniProt Q01650); assay: LAT1 uptake inhibition assay: [3H]-gabapentin competition uptake in LN229 cells; assay type: cell-based; conditions: [3H]-gabapentin uptake
Description: LAT1 Uptake Inhibition Assay
The ability of compounds to interact with LAT1 was measured using a radiolabeled competition uptake assay with [^3H]-Gabapentin ([^3H]-GP) (Perkin Elmer) in 96-well plates with LN229 cells (ATCC®). Ten (10)×10^3 (10,000) cells/well were plated in white, clear bottom plates and were allowed to grow for three (3) days. On the fourth day, the cells were washed and then incubated with 50,000 counts per minute (cpm) of [^3H]-GP in phosphate buffered saline (PBS) (VWR International) with increasing concentrations of test compounds in at least triplicate for 15 min. At end of the assay time, the incubation solution was removed, and plates were washed three times (3×) with 100 μL of ice-cold PBS buffer. One-hundred fifty (150) […] of scintillation fluid (VWR International) was added to each well, and the radioactivity retained within the cells was measured on a 96-well scintillation counter. Background uptake ([^3H]-GP uptake in the presence of 10 mM non-radiolabeled gabapentin (GP)) (MedKoo) was subtracted and data were normalized to the DMSO control ([^3H]-GP uptake in the absence of any competitor). Data were fitted to the Michaelis-Menten equation using GraphPad Prism (Version 8.2.0).

LN229 cells = assay: Amino acid starvation assay: antiproliferation assay with LN229 cells (CellTiter-Glo); assay type: cell-based; conditions: Homo sapiens, LN-229, 144 h, F12K medium, six days
Description: Amino Acid Starvation Assay
The ability of compounds to inhibit amino acid uptake interact with LAT1 was measured using an antiproliferation assay with LN229 cells (ATCC®). LN229 cells were cultured in DMEM medium (VWR International). Two (2)×10^3 (2,000) cells/well were plated in clear bottom 96-well plates (CellBIND®, Corning 3340) and were allowed to attach overnight. The next day, cells were washed once with PBS buffer (VWR International). F12K medium ([…]) (VWR International) with increasing concentrations of test compounds in at least triplicate was added. Cells were incubated for six (6) days at 37° C. and 5% CO2. At end of the assay, 140 μL of supernatant medium were removed from each well and 60 μL of CellTiter-Glo® (Promega) were added. Cell lysis was induced by placing the plates for three (3) minutes on an orbital shaker. Plates were incubated for 10 min at 25° C. to stabilize the luminesce signal. Luminescence was recorded using an EnSpire® Multimode Plate Reader (Perkin Elmer). Background (luminescence from wells incubated in the presence of 100 µM of commercial LAT1 inhibitor JPH203 (MedKoo) was subtracted, and data were normalized to the DMSO control (proliferation in the absence of any competitor). Data were fitted to the Michaelis-Menten equation using GraphPad Prism (Version 8.2.0).

[1] = 15 min incubation in PBS, read-out: IC50, the concentration of test compound at which the [3H]-GP uptake was inhibited by 50%
[2] = Table 1, read-out: LAT1 inhibition IC50 (nM ± SE)
[3] = Table 1, read-out: Anti-proliferation LC50 (μM ± SE)
[4] = read-out: LC50, the concentration of test compound at which the proliferation was inhibited by 50%

LAT1, sequence (Q01650 whole entry): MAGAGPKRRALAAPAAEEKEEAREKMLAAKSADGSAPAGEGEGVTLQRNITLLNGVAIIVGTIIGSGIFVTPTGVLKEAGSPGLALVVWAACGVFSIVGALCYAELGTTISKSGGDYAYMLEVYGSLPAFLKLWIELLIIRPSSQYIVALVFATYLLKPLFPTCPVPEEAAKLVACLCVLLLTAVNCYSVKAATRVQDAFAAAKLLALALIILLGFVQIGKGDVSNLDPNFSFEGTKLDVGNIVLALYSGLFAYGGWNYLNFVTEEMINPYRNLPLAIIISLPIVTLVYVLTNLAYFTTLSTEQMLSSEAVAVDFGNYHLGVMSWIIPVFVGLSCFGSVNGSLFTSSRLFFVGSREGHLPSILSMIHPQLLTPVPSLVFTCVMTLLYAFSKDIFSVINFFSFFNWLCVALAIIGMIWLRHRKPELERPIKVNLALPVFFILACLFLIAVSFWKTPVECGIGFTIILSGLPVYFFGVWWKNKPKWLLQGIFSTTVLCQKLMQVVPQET
LAT1, sequence (P08195 whole entry partner): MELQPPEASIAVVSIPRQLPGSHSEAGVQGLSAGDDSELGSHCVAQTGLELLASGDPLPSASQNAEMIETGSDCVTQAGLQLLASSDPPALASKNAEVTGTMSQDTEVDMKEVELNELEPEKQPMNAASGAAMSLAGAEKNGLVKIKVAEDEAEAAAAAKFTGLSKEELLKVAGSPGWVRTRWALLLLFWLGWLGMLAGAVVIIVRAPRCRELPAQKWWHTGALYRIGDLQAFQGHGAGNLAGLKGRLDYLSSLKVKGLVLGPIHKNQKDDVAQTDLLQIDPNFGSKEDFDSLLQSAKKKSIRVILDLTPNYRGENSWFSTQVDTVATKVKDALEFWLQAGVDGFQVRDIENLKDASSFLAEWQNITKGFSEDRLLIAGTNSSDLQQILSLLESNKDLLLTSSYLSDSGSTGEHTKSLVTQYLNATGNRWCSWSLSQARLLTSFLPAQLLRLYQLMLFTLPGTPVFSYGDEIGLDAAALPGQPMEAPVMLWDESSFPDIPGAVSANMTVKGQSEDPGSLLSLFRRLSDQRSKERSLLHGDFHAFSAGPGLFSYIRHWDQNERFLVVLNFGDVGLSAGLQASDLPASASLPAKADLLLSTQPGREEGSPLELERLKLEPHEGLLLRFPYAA

Compound | IC50 (LAT1; [1]) [nM] | other results
Cc1ccc(NS(=O)(=O)c2ccccc2)cc1C[C@H](N)C(=O)O [Compound 10, (S)-2-Amino-3-(2-methyl-5-(phenylsulfonamido)phenyl)propanoic Acid] | 20 to 100 | IC50 (LAT1; [2]): 100 ± 40 nM; CC50 (LN229 cells; [3]): 70 ± 20 µM; CC50 (LN229 cells; [4]): 30 to 100 µM
CC(C)c1ccc(NS(=O)(=O)c2cccc3c(N(C)C)cccc23)cc1C[C@H](N)C(=O)O [Compound 21, (S)-2-Amino-3-(5-((5-(dimethylamino)naphthalene)-1-sulfonamido)-2-isopropylphenyl)propanoic Acid] | 20 to 100 | IC50 (LAT1; [2]): 50 ± 10 nM; CC50 (LN229 cells; [3]): 49 ± 1 µM; CC50 (LN229 cells; [4]): 30 to 100 µM
Cc1ccc(NS(=O)(=O)c2cccc(Br)c2)cc1C[C@H](N)C(=O)O [Compound 29, (S)-2-Amino-3-(5-((3-bromophenyl)sulfonamido)-2-methylphenyl)propanoic Acid] | 20 to 100 | IC50 (LAT1; [2]): 40 ± 10 nM; CC50 (LN229 cells; [3]): 90 ± 30 µM; CC50 (LN229 cells; [4]): 30 to 100 µM
Cc1ccc(S(=O)(=O)NCc2ccccc2)cc1C[C@H](N)C(=O)O [Compound 30, (S)-2-Amino-3-(5-(N-benzylsulfamoyl)-2-methylphenyl)propanoic Acid] | ≤ 20 | IC50 (LAT1; [2]): 20 ± 4 nM; CC50 (LN229 cells; [3]): 38 ± 2 µM; CC50 (LN229 cells; [4]): 30 to 100 µM
Cc1ccc(S(=O)(=O)N(c2ccc(C)c(C[C@H](N)C(=O)O)c2)S(=O)(=O)c2ccc(C)cc2)cc1 [Compound 48, (S)-2-Amino-3-(2-methyl-5-((4-methyl-N-tosylphenyl)sulfonamido)phenyl)propanoic Acid] | 100 to 1000 | 
Cc1ccc(S(=O)(=O)Nc2cccc3ncccc23)cc1C[C@H](N)C(=O)O [Compound 50, (S)-2-Amino-3-(2-methyl-5-(N-(quinolin-5-yl)sulfamoyl)phenyl)propanoic Acid] | 100 to 1000 | 
Cc1ccc(S(=O)(=O)Nc2ccc(Cl)cc2)cc1C[C@@H](N)C(=O)O [Compound 51, (R)-2-Amino-3-(5-(N-(4-chlorophenyl)sulfamoyl)-2-methylphenyl)propanoic Acid] | ≥ 10000 | 
Cc1ccc(CNS(=O)(=O)Cc2ccccc2)cc1C[C@H](N)C(=O)O [Compound 54, (S)-2-Amino-3-(2-methyl-5-(((phenylmethyl)sulfonamido)methyl)phenyl)propanoic Acid] | 1000 to 10000 | 
Cc1ccc(CSCc2ccccc2)cc1C[C@H](N)C(=O)O [Compound 55, (S)-2-Amino-3-(5-((benzylthio)methyl)-2-methylphenyl)propanoic Acid] | 100 to 1000 | 
Cc1ccc(CS(=O)(=O)Cc2ccccc2)cc1C[C@H](N)C(=O)O [Compound 56, (S)-2-Amino-3-(5-((benzylsulfonyl)methyl)-2-methylphenyl)propanoic Acid] | 100 to 1000 | 
COc1ccc(S(=O)(=O)Nc2ccc(C)c(C[C@H](N)C(=O)O)c2)cc1 [Compound 57, (S)-2-Amino-3-(5-((4-methoxyphenyl)sulfonamido)-2-methylphenyl)propanoic Acid] | 100 to 1000 | 
CCCCS(=O)(=O)Nc1ccc(C)c(C[C@H](N)C(=O)O)c1 [Compound 58, (S)-2-Amino-3-(5-(butylsulfonamido)-2-methylphenyl)propanoic Acid] | 100 to 1000 | 
Cc1ccc(SCc2ccccc2)cc1C[C@H](N)C(=O)O [Compound 59, (S)-2-Amino-3-(5-(benzylthio)-2-methylphenyl)propanoic Acid] | 100 to 1000 | 
Cc1ccc(C[S+]([O-])Cc2ccccc2)cc1C[C@H](N)C(=O)O (stereo partly drawn) [Compound 60, (2S)-2-Amino-3-(5-((benzylsulfinyl)methyl)-2-methylphenyl)propanoic Acid] | 100 to 1000 | 
CS(=O)(=O)Nc1cc(C[C@H](N)C(=O)O)cc(NS(C)(=O)=O)c1 [Compound 61, (S)-2-Amino-3-(3,5-di(methylsulfonamido)phenyl)propanoic Acid] | ≥ 10000 | 
N[C@@H](Cc1cc(NS(=O)(=O)c2ccccc2)cc(NS(=O)(=O)c2ccccc2)c1)C(=O)O [Compound 62, (S)-2-Amino-3-(3,5-bis(phenylsulfonamido)phenyl)propanoic Acid] | ≥ 10000 | 
Cc1ccc(S(=O)(=O)Nc2cc(C[C@H](N)C(=O)O)cc(NS(=O)(=O)c3ccc(C)cc3)c2)cc1 [Compound 63, (S)-2-Amino-3-(3,5-bis((4-methylphenyl)sulfonamido)phenyl)propanoic Acid] | 1000 to 10000 | 
Cc1ccc([S+]([O-])Cc2ccccc2)cc1C[C@H](N)C(=O)O (stereo partly drawn) [Compound 64, (2S)-2-Amino-3-(5-(benzylsulfinyl)-2-methylphenyl)propanoic Acid] | 1000 to 10000 | 

Compound | IC50 (LAT1; [1]) [nM] | other results
Cc1ccc(S(=O)(=O)Cc2ccccc2)cc1C[C@H](N)C(=O)O [Compound 65, (S)-2-Amino-3-(5-(benzylsulfonyl)-2-methylphenyl)propanoic Acid] | 100 to 1000 | 
Cc1ccc(S(=O)(=O)NCc2ccc(C)c(C[C@H](N)C(=O)O)c2)cc1 [Compound 66, (S)-2-Amino-3-(2-methyl-5-(((4-methylphenyl)sulfonamido)methyl)phenyl)propanoic Acid] | 100 to 1000 | 
Cc1ccc(NS(C)(=O)=O)cc1C[C@H](N)C(=O)O [Compound 67, (S)-2-Amino-3-(2-methyl-5-(methylsulfonamido)phenyl)propanoic Acid] | ≥ 10000 | 
CS(=O)(=O)Nc1cccc(C[C@H](N)C(=O)O)c1 [Compound 68, (S)-2-Amino-3-(3-(methylsulfonamido)phenyl)propanoic Acid] | ≥ 10000 | 
Cc1ccc(CNS(=O)(=O)c2ccccc2)cc1C[C@H](N)C(=O)O [Compound 69, (S)-2-Amino-3-(2-methyl-5-(phenylsulfonamidomethyl)phenyl)propanoic Acid] | 100 to 1000 | 
CS(=O)(=O)Nc1ccc(C[C@H](N)C(=O)O)cc1 [Compound 70, (S)-2-Amino-3-(4-(methylsulfonamido)phenyl)propanoic Acid] | ≥ 10000 | 
N[C@@H](Cc1cccc(S(N)(=O)=O)c1)C(=O)O [Compound 71, (S)-2-Amino-3-(3-sulfamoylphenyl)propanoic Acid] | ≥ 10000 | 
CNS(=O)(=O)c1cccc(C[C@H](N)C(=O)O)c1 [Compound 72, (S)-2-Amino-3-(3-(N-methylsulfamoyl)phenyl)propanoic Acid] | ≥ 10000 | 
CN(C)S(=O)(=O)c1cccc(C[C@H](N)C(=O)O)c1 [Compound 73, (S)-2-Amino-3-(3-(N,N-dimethylsulfamoyl)phenyl)propanoic Acid] | 1000 to 10000 | 
N[C@@H](Cc1ccc(S(N)(=O)=O)cc1)C(=O)O [Compound 74, (S)-2-Amino-3-(4-sulfamoylphenyl)propanoic acid] | ≥ 10000 | 
Cc1ccc(S(=O)(=O)Nc2ccccc2Br)cc1C[C@H](N)C(=O)O [Compound 75, (S)-2-Amino-3-(5-(N-(2-bromophenyl)sulfamoyl)-2-methylphenyl)propanoic Acid] | 100 to 1000 | 
N[C@@H](Cc1cccc(S(=O)(=O)N2CCCCC2)c1)C(=O)O [Compound 78, (S)-2-Amino-3-(3-(piperidin-1-ylsulfonyl)phenyl)propanoic Acid] | 1000 to 10000 | 
N[C@@H](Cc1ccc(S(=O)(=O)Nc2ccc(Cl)cc2)cc1)C(=O)O [Compound 80, (S)-2-Amino-3-(4-(N-(4-chlorophenyl)sulfamoyl)phenyl)propanoic Acid] | 1000 to 10000 | 
N[C@@H](Cc1ccccc1S(=O)(=O)Nc1ccc(Cl)cc1)C(=O)O [Compound 81, (S)-2-Amino-3-(2-(N-(4-chlorophenyl)sulfamoyl)phenyl)propanoic Acid] | 1000 to 10000 | 
Cc1ccc(S(=O)(=O)Nc2ccc(Cl)c(Cl)c2)cc1C[C@H](N)C(=O)O [Compound 83, (S)-2-Amino-3-(5-(N-(3,4-dichlorophenyl)sulfamoyl)-2-methylphenyl)propanoic Acid] | 100 to 1000 | 
Cc1ccc(S(=O)(=O)N(C)c2ccc(Cl)cc2)cc1C[C@H](N)C(=O)O [Compound 84, (S)-2-Amino-3-(5-(N-(4-chlorophenyl)-N-methylsulfamoyl)-2-methylphenyl)propanoic Acid] | 20 to 100 | 
Cc1cc(S(=O)(=O)Nc2ccc(Cl)cc2)ccc1C[C@H](N)C(=O)O [Compound 85, (S)-2-Amino-3-(4-(N-(4-chlorophenyl)sulfamoyl)-2-methylphenyl)propanoic Acid] | 100 to 1000 | 
